Assays:
[1] = tested on: Bladder carcinoma 5637 cells; assay type: cell-based
Protocol: Testing was performed essentially as previously described, [44]. Concentration-response testing was performed over a range 0.58–300 µM in a […] plate format. Bladder carcinoma 5637 cells (ATCC HTB-9) were added to the compounds, and 72 hrs later cell viability was measured using CellTiter Glo (Promega). […] Hyamine was used as a positive cytotoxic control. All wells contained 0.5% DMSO.

Neuropeptide Y Y2 = biological target: T1, Neuropeptide Y Y2 (Homo sapiens, UniProt P49146); assay type: binding; conditions: 10 µM
T1 construct: Human KAN-TS cells; host or cells: KAN-TS cells
T1 sequence (P49146 whole entry): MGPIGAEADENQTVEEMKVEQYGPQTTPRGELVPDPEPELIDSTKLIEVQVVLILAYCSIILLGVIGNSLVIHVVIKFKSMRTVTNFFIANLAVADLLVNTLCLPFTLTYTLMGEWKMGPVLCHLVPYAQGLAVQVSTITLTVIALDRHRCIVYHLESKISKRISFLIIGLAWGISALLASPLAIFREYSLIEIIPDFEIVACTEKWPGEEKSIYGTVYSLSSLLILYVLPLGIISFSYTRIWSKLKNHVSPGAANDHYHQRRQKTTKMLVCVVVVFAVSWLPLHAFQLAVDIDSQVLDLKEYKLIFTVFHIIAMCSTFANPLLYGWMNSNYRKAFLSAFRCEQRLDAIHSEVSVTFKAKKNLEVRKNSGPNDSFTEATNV

Bradykinin B1 = biological target: T2, Bradykinin B1 (Homo sapiens, UniProt P46663); assay type: binding; conditions: 10 µM
T2 construct: Human IMR-90 cells; host or cells: IMR-90 cells

Histamine H1 = biological target: T3, Histamine H1 (Homo sapiens, UniProt P35367); assay type: binding; conditions: 10 µM
T3 construct: host or cells: CHO-K1 cells
T3 sequence (P35367 whole entry): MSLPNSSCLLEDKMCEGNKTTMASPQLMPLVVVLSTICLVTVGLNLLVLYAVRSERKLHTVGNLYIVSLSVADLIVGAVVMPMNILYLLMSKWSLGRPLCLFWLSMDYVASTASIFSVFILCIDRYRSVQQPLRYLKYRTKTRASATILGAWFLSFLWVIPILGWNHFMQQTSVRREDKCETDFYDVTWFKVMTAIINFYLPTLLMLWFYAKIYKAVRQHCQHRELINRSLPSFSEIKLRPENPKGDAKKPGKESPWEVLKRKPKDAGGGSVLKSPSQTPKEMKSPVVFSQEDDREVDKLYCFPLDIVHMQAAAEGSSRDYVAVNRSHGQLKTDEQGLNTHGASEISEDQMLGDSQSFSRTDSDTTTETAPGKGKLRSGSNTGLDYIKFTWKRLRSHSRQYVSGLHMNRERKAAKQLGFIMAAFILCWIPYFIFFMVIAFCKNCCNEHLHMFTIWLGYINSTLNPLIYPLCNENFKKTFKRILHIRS

[2] = tested on: GABAA, Flunitrazepam, Central; assay: Radioligand binding 226600; design: species or system rat; conditions: 10 µM
[3] = biological target: Nicotinic Acetylcholine α1, Bungarotoxin (Homo sapiens, UniProt P02708+P07510+Q07001); assay type: binding; conditions: 10 µM
[4] = tested on: Glutamate, NMDA, Phencyclidine; assay: Radioligand binding 233000; design: species or system rat; conditions: 10 µM
GABAB1A = biological target: T4, GABAB1A (Homo sapiens, UniProt Q9UBS5); assay: Radioligand binding 228610; conditions: 10 µM
T4 construct: host or cells: CHO cells
T4 sequence (Q9UBS5 15-961): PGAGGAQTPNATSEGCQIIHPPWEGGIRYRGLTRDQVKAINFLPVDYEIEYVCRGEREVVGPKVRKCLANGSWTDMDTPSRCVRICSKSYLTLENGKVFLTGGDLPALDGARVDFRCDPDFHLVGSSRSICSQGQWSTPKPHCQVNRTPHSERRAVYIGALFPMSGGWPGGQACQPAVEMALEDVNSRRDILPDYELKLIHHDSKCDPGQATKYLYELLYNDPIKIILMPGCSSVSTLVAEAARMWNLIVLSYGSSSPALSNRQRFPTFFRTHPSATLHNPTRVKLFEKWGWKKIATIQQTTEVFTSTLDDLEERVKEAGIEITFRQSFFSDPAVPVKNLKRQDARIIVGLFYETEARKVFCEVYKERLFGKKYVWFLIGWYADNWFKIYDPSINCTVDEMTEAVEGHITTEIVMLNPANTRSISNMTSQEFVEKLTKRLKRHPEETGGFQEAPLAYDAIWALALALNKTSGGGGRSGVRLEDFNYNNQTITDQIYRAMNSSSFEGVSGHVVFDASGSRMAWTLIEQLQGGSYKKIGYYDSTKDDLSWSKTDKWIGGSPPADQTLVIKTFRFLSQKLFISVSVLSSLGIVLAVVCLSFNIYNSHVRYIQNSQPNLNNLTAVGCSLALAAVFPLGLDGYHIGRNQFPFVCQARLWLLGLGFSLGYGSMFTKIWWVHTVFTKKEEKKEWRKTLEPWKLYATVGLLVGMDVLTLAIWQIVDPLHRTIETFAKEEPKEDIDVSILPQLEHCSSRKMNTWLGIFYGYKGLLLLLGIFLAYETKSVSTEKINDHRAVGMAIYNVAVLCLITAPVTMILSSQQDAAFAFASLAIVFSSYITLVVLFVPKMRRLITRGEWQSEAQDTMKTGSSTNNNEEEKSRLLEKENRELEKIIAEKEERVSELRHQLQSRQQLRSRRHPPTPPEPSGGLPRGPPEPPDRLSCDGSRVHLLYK

Phorbol Ester = assay: Radioligand binding 264500; design: species or system mouse; conditions: 10 µM
Glucocorticoid = Glucocorticoid (Homo sapiens, UniProt P04150); assay: Radioligand binding 232030; design: host or cells: insect cells; conditions: 10 µM
Glutamate, NMDA, Agonism = Glutamate, NMDA, Agonism (Rattus norvegicus, UniProt Q00959); assay: Radioligand binding 232810; conditions: 10 µM
Chain of Glutamate, NMDA, Agonism (Q00959 23-1464, other chains not shown): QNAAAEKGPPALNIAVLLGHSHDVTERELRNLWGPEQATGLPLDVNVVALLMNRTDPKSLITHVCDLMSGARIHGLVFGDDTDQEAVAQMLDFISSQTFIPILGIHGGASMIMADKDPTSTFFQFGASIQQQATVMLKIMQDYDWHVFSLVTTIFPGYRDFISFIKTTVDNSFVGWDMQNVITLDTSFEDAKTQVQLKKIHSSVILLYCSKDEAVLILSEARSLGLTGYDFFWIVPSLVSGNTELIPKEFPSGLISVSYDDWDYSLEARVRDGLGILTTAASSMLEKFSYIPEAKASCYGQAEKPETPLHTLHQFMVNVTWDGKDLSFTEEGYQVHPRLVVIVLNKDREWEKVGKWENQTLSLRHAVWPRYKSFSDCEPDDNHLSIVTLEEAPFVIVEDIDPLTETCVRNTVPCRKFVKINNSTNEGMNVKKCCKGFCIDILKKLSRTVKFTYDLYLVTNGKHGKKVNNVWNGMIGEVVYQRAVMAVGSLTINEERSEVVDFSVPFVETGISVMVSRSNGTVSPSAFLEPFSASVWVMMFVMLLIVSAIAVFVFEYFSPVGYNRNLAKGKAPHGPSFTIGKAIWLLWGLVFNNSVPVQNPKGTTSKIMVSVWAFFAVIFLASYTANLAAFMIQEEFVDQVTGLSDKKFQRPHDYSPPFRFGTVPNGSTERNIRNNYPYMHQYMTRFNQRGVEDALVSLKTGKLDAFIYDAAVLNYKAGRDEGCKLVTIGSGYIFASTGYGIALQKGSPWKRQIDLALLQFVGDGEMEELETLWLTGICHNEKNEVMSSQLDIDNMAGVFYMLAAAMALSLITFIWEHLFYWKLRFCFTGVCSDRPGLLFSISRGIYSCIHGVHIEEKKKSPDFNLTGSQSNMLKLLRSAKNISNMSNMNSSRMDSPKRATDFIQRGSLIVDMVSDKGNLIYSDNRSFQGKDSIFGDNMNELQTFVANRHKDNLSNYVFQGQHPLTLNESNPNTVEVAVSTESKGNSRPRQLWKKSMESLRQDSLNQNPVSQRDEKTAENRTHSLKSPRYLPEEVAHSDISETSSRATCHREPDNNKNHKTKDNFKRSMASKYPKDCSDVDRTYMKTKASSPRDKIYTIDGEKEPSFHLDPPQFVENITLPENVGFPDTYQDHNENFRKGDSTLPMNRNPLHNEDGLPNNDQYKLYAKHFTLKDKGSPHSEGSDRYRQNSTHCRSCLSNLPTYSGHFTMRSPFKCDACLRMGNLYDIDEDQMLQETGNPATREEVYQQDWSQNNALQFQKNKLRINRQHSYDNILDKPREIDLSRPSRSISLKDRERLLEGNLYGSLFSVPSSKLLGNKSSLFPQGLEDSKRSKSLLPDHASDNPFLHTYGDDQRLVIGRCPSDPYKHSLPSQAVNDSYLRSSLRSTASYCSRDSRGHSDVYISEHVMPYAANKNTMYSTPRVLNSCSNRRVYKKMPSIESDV

[5] = biological target: T5, Serotonin (5-Hydroxytryptamine) 5-HT1A (Homo sapiens, UniProt P08908); assay: Radioligand binding 271110; conditions: 10 µM
T5 construct: host or cells: CHO-K1

[6] = biological target: Transporter, Dopamine (DAT) (Homo sapiens, UniProt Q01959); assay type: binding; design: host or cells: CHO-K1; conditions: 10 µM
Chain of Transporter, Dopamine (DAT) (Q01959 whole entry): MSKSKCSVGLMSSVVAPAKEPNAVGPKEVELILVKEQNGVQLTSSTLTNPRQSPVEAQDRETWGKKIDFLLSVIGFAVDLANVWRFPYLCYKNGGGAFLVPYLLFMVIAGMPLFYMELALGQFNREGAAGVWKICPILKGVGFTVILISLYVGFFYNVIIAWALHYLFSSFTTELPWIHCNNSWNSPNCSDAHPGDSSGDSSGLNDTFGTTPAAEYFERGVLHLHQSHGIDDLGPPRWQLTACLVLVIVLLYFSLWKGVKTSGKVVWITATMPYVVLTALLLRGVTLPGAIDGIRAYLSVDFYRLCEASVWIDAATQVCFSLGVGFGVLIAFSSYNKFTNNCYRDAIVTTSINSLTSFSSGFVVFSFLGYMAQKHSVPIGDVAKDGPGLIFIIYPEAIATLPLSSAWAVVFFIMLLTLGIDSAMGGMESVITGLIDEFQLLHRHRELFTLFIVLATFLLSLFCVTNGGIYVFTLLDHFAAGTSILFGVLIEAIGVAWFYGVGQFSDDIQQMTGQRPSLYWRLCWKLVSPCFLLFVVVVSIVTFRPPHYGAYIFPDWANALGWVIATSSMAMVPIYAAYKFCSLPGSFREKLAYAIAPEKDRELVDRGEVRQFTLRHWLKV

Neuropeptide Y Y1 = biological target: T6, Neuropeptide Y Y1 (Homo sapiens, UniProt P25929); assay: Radioligand binding 257010; conditions: 10 µM
T6 construct: Human SK-N-MC cells; host or cells: SK-N-MC cells

Melatonin MT1 = biological target: T7, Melatonin MT1 (Homo sapiens, UniProt P48039); assay type: binding; conditions: 10 µM
T7 construct: host or cells: CHO-K1 cells

Dopamine D4.2 = biological target: T8, Dopamine D4.2 (Homo sapiens, UniProt P21917, DEL265-296); assay type: binding; conditions: 10 µM
T8 construct: host or cells: CHO-K1 cells
T8 sequence (P21917 other isoform, or with tags, fused parts or gaps DEL265-296): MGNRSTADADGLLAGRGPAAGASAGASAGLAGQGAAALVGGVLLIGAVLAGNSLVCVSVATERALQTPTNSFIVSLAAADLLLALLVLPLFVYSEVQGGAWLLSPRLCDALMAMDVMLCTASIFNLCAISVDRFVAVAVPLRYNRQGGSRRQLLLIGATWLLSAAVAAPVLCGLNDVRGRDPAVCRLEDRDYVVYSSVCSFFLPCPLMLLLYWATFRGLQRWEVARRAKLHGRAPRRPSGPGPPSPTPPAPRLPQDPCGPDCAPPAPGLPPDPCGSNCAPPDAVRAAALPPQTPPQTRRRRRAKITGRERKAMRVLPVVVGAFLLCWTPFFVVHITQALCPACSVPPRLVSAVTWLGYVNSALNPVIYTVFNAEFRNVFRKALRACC

Purinergic P2Y = assay: Radioligand binding 268810; design: species or system rat; conditions: 10 µM
Potassium Channel hERG = Potassium Channel hERG (Homo sapiens, UniProt Q12809); conditions: 10 µM
Muscarinic M2 = biological target: T9, Muscarinic M2 (Homo sapiens, UniProt P08172); assay: Radioligand binding 252710; conditions: 10 µM
T9 construct: host or cells: CHO-K1 cells
T9 sequence (P08172 whole entry): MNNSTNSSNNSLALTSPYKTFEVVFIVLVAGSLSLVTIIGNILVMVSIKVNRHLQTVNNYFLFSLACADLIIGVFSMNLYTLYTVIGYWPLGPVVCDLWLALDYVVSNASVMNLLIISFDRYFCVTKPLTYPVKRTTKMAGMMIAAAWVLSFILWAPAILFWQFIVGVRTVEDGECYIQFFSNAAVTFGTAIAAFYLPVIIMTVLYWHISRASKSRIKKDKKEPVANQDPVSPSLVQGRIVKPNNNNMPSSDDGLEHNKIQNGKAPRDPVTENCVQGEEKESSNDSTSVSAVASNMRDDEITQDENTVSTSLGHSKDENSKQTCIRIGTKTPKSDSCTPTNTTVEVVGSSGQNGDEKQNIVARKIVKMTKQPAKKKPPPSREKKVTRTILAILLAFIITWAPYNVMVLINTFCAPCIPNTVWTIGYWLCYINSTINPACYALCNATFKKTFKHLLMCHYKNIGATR

Adrenergic β1 = biological target: T10, Adrenergic β1 (Homo sapiens, UniProt P08588); assay type: binding; conditions: 10 µM
T10 construct: host or cells: CHO-K1 cells

[7] = tested on: K1 capsule biogenesis in E. coli UTI89; assay type: cell-based, Escherichia coli; conditions: average of at least 3 replicates ± SEM, read-out: IC50 K1 phage
Protocol: The primary assay consisted of detection of the presence and absence of the K1 capsule on the E. coli urinary tract isolate UTI89 under growth conditions with compounds from a large chemical library. The assay was conducted as previously described with the following modifications. The primary assay was conducted in 1,536-well plate format. UTI89 ΔkpsM, an isogenic K1 capsule export mutant, was included as an unencapsulated control. Tetracycline, 50 µM, was used as a negative growth control. A 1∶75 dilution of overnight cultures were made in LB broth containing 0.5% DMSO, and 3 µL of this culture was added to each plate well, and plates were incubated, inverted, at 37°C for 2 hr. […]. The plates were centrifuged briefly, and then were incubated, inverted, at 37°C for an additional 2 hr. […] Resorufin fluorescence was measured using excitation of 560 nm and emission of 590 nm, as per the manufacturer's recommendations.
Concentration-response testing (concentration range = 0.58–300 µM) was used to confirm and characterize the primary screen hits, which was necessary to determine the number of compounds advanced to secondary screens. […] The strain UTI89 ΔkpsM, a K1 capsule export mutant, was evaluated with the wild-type strain as a phage-insensitive control (mimicking 100% capsule inhibition).

SMILES: CCOc1ccc(-c2cc(NC(=O)c3c(F)cccc3F)c(C(=O)O)s2)cc1 [DU011]
- Selectivity (CC50/IC50) [1]: 13.3
- CC50 ([1]; 5637 cells, 72 hrs, ± SEM, read-out: Cytotoxicity (CC50)): 51.6 ± 13.6 µM
- % Inh. (Neuropeptide Y Y2): -6%
- % Inh. (Bradykinin B1): 12%
- % Inh. (Histamine H1): -16%
- % Inh. [2]: 12%
- % Inh. [3]: 8%
- % Inh. [4]: 2%
- % Inh. (GABAB1A): 7%
- % Inh. (Phorbol Ester): 1%
- % Inh. (Glucocorticoid): 16%
- % Inh. (Glutamate, NMDA, Agonism): -8%
- % Inh. [5]: 11%
- % Inh. [6]: -13%
- % Inh. (Neuropeptide Y Y1): 2%
- % Inh. (Melatonin MT1): 7%
- % Inh. (Dopamine D4.2): 0%
- % Inh. (Purinergic P2Y): 1%
- % Inh. (Potassium Channel hERG): 9%
- % Inh. (Muscarinic M2): 5%
- % Inh. (Adrenergic β1): 3%
- IC50 [7]: 4.5 ± 2.5 µM
